As usually defined, the IC50 is the concentration that inhibits the measured activity by half. A higher IC50 goes with a need for much substance. For orientation: MIC means the lowest concentration found to suppress growth. Low values mean greater potency, high ones weaker potency. By MIC90 is commonly meant the lowest concentration that inhibits either 90% of growth or 90% of the strains tested, depending on the study. Low values mean higher susceptibility, high ones lower susceptibility.

Results on 40 compounds are retold here after ChEMBL document CHEMBL1137118, “Definition of the heterocyclic pharmacophore of bacterial methionyl tRNA synthetase inhibitors: potent antibacterially active non-quinolone analogues” (Bioorg Med Chem Lett, 2004).

Molecules are shown by their SMILES. In brackets after ≈: the same amount, converted by molar mass.

For one test, the target named is Methionine--tRNA ligase (Staphylococcus aureus subsp. aureus MW2, UniProt Q8NY00). In words: Inhibitory concentration against Staphylococcus aureus methionyl tRNA synthetase.
Test [1] concerns Staphylococcus aureus. Description: Antibacterial activity against Staphylococcus aureus Oxford. It is filed as functional.
In test [2] the test system is Enterococcus faecalis. In words: Antibacterial activity against Enterococcus faecalis 1. It is filed as functional.
Test [3] has as its system Staphylococcus aureus. Description: Concentration required to inhibit 90% population of Staphylococcus aureus. It is filed as functional.
The test system of test [4] is Staphylococcus epidermidis. In words: Concentration required to inhibit 90% population of Staphylococcus epidermidis. The class given is functional.
Another test relates to Enterococcus faecium. In words: Concentration required to inhibit 90% population of Enterococcus faecium. It is filed as functional.
Test [5] has as its system Enterococcus faecalis. Description: Concentration required to inhibit 90% population of Enterococcus faecalis. The class given is functional.

Methionine--tRNA ligase, sequence (Q8NY00 whole entry): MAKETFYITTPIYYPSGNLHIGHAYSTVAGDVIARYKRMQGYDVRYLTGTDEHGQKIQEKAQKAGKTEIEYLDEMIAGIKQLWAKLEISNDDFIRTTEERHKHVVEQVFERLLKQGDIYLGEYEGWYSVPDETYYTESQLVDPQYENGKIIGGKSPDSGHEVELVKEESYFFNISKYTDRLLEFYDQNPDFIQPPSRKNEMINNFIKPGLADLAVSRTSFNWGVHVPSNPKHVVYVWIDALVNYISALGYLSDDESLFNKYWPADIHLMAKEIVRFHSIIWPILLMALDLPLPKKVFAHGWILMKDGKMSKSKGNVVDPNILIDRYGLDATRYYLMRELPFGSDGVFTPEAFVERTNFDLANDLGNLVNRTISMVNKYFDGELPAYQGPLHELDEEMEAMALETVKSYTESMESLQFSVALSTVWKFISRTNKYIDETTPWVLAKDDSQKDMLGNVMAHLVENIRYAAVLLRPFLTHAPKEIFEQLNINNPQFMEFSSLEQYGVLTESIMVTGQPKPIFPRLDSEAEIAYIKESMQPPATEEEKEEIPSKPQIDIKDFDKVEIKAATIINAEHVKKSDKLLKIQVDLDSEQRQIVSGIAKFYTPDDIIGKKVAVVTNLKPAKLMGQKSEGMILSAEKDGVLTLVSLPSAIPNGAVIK

`Oc1cc(NCCCNCc2cc(Cl)cc(Cl)c2Cl)nc2ccccc12` registered an IC50 against Methionine--tRNA ligase of less than 3 nM.
As for `Oc1cc(NCCCNCc2cc(Br)cc(Br)c2)nc2ccccc12`, the IC50 at Methionine--tRNA ligase is less than 3 nM. Besides, the MIC in the test on Staphylococcus aureus [1] was 0.25 µg/mL (≈ 0.537 µM); in the test on Enterococcus faecalis [2] it was not above 0.06 µg/mL.
The matching figures for `Oc1nc(NCCCNC2CCNc3c(Cl)cc(Br)cc32)nc2ccsc12` (centres undefined): less than 3 nM, not above 0.06 µg/mL and not above 0.06 µg/mL.
The like results for `CCOc1c(Br)cc(Br)cc1CNCCCNc1nc2ccccc2[nH]1` were, in that order, 17 nM, 1 µg/mL (≈ 2.07 µM) and 0.25 µg/mL (≈ 0.518 µM).
At Methionine--tRNA ligase, `CCOc1c(Cl)cc(Cl)cc1CNCCCNc1nc(O)c2sccc2n1` registered an IC50 of less than 3 nM. Further, the MIC came out at 0.25 µg/mL (≈ 0.585 µM) with Staphylococcus aureus [1] and 0.13 µg/mL (≈ 0.304 µM) with Enterococcus faecalis [2].
Turning to `CCOc1c(Br)cc(Cl)cc1CNCCCNc1nc(O)c2sccc2n1`, on Methionine--tRNA ligase, the IC50 is less than 3 nM. The MIC against Staphylococcus aureus [1] and in the test with Enterococcus faecalis [2] was 0.13 µg/mL (≈ 0.276 µM) each time.
On to `Clc1cc(Cl)c(Cl)c(CNCCCNc2ccc3ccccc3n2)c1`, for which, at Methionine--tRNA ligase, the IC50 turned out to be 100 nM.
`CCc1cc(I)c2c(c1)C(NCCCNc1nc(O)c3sccc3n1)CCN2` (centres undefined) registered an IC50 against Methionine--tRNA ligase of less than 3 nM. Moreover, the MIC against Staphylococcus aureus [1] is not above 0.06 µg/mL; against Enterococcus faecalis [2], 0.5 µg/mL (≈ 0.982 µM).
For the compound `Brc1cc(Br)c2c(c1)C(NCCCNc1nc3ncccc3[nH]1)CCN2` (centres undefined), the IC50 against Methionine--tRNA ligase turned out to be 11 nM. The MIC against Staphylococcus aureus [1] and in the test on Enterococcus faecalis [2] was not above 0.06 µg/mL each time. Further, the MIC90 against Staphylococcus aureus [3] was 1 µg/mL (≈ 2.08 µM); in test [4], 0.5 µg/mL (≈ 1.04 µM); with Enterococcus faecium, 0.03 µg/mL (≈ 0.0625 µM); against Enterococcus faecalis [5], 0.06 µg/mL (≈ 0.125 µM).
On to `Brc1cc(Br)cc(CNCCCNc2nc3ccccc3[nH]2)c1`, for which, at Methionine--tRNA ligase, half-maximal inhibition (IC50) required 29 nM. The MIC with Staphylococcus aureus [1] was 1 µg/mL (≈ 2.28 µM); in the test on Enterococcus faecalis [2], 0.13 µg/mL (≈ 0.297 µM).
With `Oc1cc(NCCCNCc2cc(Cl)cc(Cl)c2Cl)cc2ccccc12`, at Methionine--tRNA ligase, inhibition was half-maximal at 1800 nM (IC50).
With `CCOc1c(Br)cc(Br)cc1CNCCCNc1nc2ccccc2c(=O)[nH]1`, the IC50 at Methionine--tRNA ligase stood at 9.7 nM. Moreover, the MIC against Staphylococcus aureus [1] is 0.13 µg/mL (≈ 0.255 µM); against Enterococcus faecalis [2], not above 0.06 µg/mL.
The like results for `Oc1nc(NCCCNCc2cc(Br)cc(Br)c2)nc2c1CCC2` were, in that order, 580 nM, more than 64 µg/mL and more than 64 µg/mL.
The like results for `O=C(NCCCNCc1cc(Br)cc(Br)c1)Nc1ccccc1` were, in that order, 330 nM, more than 64 µg/mL and 8 µg/mL (≈ 18.1 µM).
`CCOc1c(Br)cc(Br)cc1CNCCCNc1nc(O)c2sccc2n1` showed an IC50 against Methionine--tRNA ligase of 4.9 nM. For the same compound, the values for the MIC in the test on Staphylococcus aureus [1] and in the test on Enterococcus faecalis [2] were 0.13 µg/mL (≈ 0.252 µM) and not above 0.06 µg/mL, respectively.
The like results for `CCc1cc(I)c2c(c1)C(NCCCNc1nc3ccc[nH]c-3n1)CCN2` (centres undefined) were, in that order, 18 nM, 0.25 µg/mL (≈ 0.525 µM) and 1 µg/mL (≈ 2.1 µM).
At Methionine--tRNA ligase, `Brc1cc(Br)cc(CNCCCNc2nc3ccc[nH]c-3n2)c1` showed an IC50 of 5 nM. Moreover, the MIC with Staphylococcus aureus [1] was found to be 0.5 µg/mL (≈ 1.14 µM); in the test with Enterococcus faecalis [2], 0.25 µg/mL (≈ 0.569 µM).
The like results for `CCOc1c(Cl)cc(Cl)cc1CNCCCNc1nc(O)c2ccccc2n1` were, in that order, less than 3 nM, 0.13 µg/mL (≈ 0.309 µM) and not above 0.06 µg/mL.
The like results for `CCc1cc(I)c2c(c1)C(NCCCNc1nc3ccccc3[nH]1)CCN2` (centres undefined) were, in that order, 16 nM, 0.5 µg/mL (≈ 1.05 µM) and 1 µg/mL (≈ 2.1 µM).
The matching figures for `CCOc1c(Br)cc(OC)cc1CNCCCNc1nc2ccccc2[nH]1`: 17 nM, 1 µg/mL (≈ 2.31 µM) and 0.13 µg/mL (≈ 0.3 µM).
In the case of `N#Cc1c(NCCCNCc2cc(Br)cc(Br)c2)[nH]c2ccccc12`, inhibition against Methionine--tRNA ligase was half-maximal at 54 nM (IC50). In addition, the MIC with Staphylococcus aureus [1] is 0.5 µg/mL (≈ 1.08 µM); with Enterococcus faecalis [2], 0.25 µg/mL (≈ 0.541 µM).
Compound `Brc1cc(Br)c2c(c1)[C@H](NCCCNc1nc3ncccc3[nH]1)CCN2` showed an IC50 against Methionine--tRNA ligase of 6.3 nM. Besides, the MIC against Staphylococcus aureus [1] and in the test with Enterococcus faecalis [2] was not above 0.06 µg/mL in each case.
`O=c1cc(NCCCNCc2cc(Cl)cc(Cl)c2Cl)oc2ccccc12` came in with an IC50 against Methionine--tRNA ligase of 1000 nM.
Compound `O=c1nc(NCCCNCc2cc(Br)cc(Br)c2)[nH]c2ccsc12` yielded an IC50 at Methionine--tRNA ligase of 3.9 nM. Also, the MIC in the test with Staphylococcus aureus [1] was 0.5 µg/mL (≈ 1.06 µM); in the test on Enterococcus faecalis [2] it was not above 0.06 µg/mL.
The like results for `CCOc1c(Br)cc(Cl)cc1CNCCCNc1nc(O)c2ccccc2n1` were, in that order, less than 3 nM, 0.13 µg/mL (≈ 0.279 µM) and not above 0.06 µg/mL.
`Oc1cc(SCCCNCc2ccc(Cl)c(Cl)c2)nc2ccccc12` returned an IC50 at Methionine--tRNA ligase of 680 nM. For the same compound, the MIC in the test on Staphylococcus aureus [1] was more than 64 µg/mL.
On to `Brc1cc(Br)c2c(c1)C(NCCCNc1nc3ccccc3[nH]1)CCN2` (centres undefined), for which the IC50 at Methionine--tRNA ligase worked out at 13 nM. In addition, the MIC was 0.25 µg/mL (≈ 0.522 µM) against Staphylococcus aureus [1] and not above 0.06 µg/mL in the test on Enterococcus faecalis [2].
The matching figures for `Oc1nc(NCCCNCc2cc(Br)cc(Br)c2)nc2sccc12`: 150 nM, more than 64 µg/mL and 32 µg/mL (≈ 67.8 µM).
The matching figures for `Oc1cc(-c2ccccc2)nc(NCCCNCc2cc(Br)cc(Br)c2)n1`: more than 1000 nM, more than 64 µg/mL and more than 64 µg/mL.
The like results for `Oc1nc(NCCCNC2CCNc3c(Br)cc(Br)cc32)nc2ccsc12` (centres undefined) were, in that order, 13 nM, not above 0.06 µg/mL and not above 0.06 µg/mL.
At Methionine--tRNA ligase, `CCOc1c(Br)cc(OC)cc1CNCCCNc1nc(O)c2sccc2n1` registered an IC50 of 3.3 nM. For the same compound, the MIC with Staphylococcus aureus [1] was 0.25 µg/mL (≈ 0.535 µM); in the test with Enterococcus faecalis [2] it was not above 0.06 µg/mL.
The like results for `CCOc1c(Br)cc(OC)cc1CNCCCNc1nc(O)c2ccccc2n1` were, in that order, 7 nM, 0.13 µg/mL (≈ 0.282 µM) and not above 0.06 µg/mL.
At Methionine--tRNA ligase, `Oc1cc(OCCCNCc2ccc(Cl)c(Cl)c2)nc2ccccc12` had an IC50 of 38 nM. It took 32 µg/mL (≈ 84.8 µM) to inhibit growth in the test on Staphylococcus aureus [1] (MIC).
The compound `Oc1cc(NCCCNCc2cc(Br)cc(Br)c2)nc2sccc12` displayed an IC50 on Methionine--tRNA ligase of 6.2 nM. For the same compound, the MIC against Staphylococcus aureus [1] is 0.25 µg/mL (≈ 0.531 µM); with Enterococcus faecalis [2], not above 0.06 µg/mL.
Regarding `CCOc1c(Cl)cc(Cl)cc1CNCCCNc1nc2ccccc2[nH]1`, the IC50 on Methionine--tRNA ligase was less than 3 nM. The MIC in the test on Staphylococcus aureus [1] amounted to 2 µg/mL (≈ 5.08 µM); in the test on Enterococcus faecalis [2], 0.5 µg/mL (≈ 1.27 µM).
The like results for `Oc1cc(NCCCNCc2cc(Br)cc(Br)c2)nc2ccsc12` were, in that order, 4 nM, 0.13 µg/mL (≈ 0.276 µM) and not above 0.06 µg/mL.
The like results for `CCOc1c(Br)cc(Cl)cc1CNCCCNc1nc2ccccc2[nH]1` were, in that order, 3.8 nM, 1 µg/mL (≈ 2.28 µM) and 0.5 µg/mL (≈ 1.14 µM).
In turn, `Oc1nc(NCCCNCc2cc(Br)cc(Br)c2)nc2ccccc12` yielded an IC50 on Methionine--tRNA ligase of 8.1 nM. Also, the MIC was 0.25 µg/mL (≈ 0.536 µM) against Staphylococcus aureus [1] and not above 0.06 µg/mL against Enterococcus faecalis [2].
Turning to `CCc1cc(I)c2c(c1)C(NCCCNc1nc(O)c3ccccc3n1)CCN2` (centres undefined), the IC50 against Methionine--tRNA ligase is 17 nM. Moreover, the values for the MIC in the test on Staphylococcus aureus [1] and in the test with Enterococcus faecalis [2] were not above 0.06 µg/mL and 0.25 µg/mL (≈ 0.497 µM), respectively.
Turning to `Oc1nc(NCCCNC2CCNc3c(Cl)cc(Br)cc32)nc2ccccc12` (centres undefined), at Methionine--tRNA ligase, the midpoint of inhibition, the IC50, lay at 8.2 nM. Further, the MIC against Staphylococcus aureus [1] and with Enterococcus faecalis [2] was not above 0.06 µg/mL in each case.
